Experimental data taken from PMC7792611, “The Delta-Specific Opioid Glycopeptide BBI-11008: CNS Penetration and Behavioral Analysis in a Preclinical Model of Levodopa-Induced Dyskinesia” (International Journal of Molecular Sciences, 2020).
Values joined by “and” are separate entries in the source; they are usually repeats but may differ in a detail not shown here. Equal values may be shown once. “Also recorded” adds a separate entry of the source. Read-outs that look alike come from different tables or passages of the source. Non-standard residues stand in square brackets, D forms with d. Residues, ends and D or L forms follow the SMILES beside them. *: point of attachment. βGlc = OC[C@H]1O[C@@H](*)[C@H](O)[C@@H](O)[C@@H]1O; Nle = CCCC[C@H](N)C(=O)O

Legend:
[1] = In vivo microdialysis in the dorsolateral striatum with LC-MS; conditions: 10 mg/kg i.p., rat
Protocol: Adult male Sprague–Dawley rats (Harlan, Indianapolis, IN, USA) weighing between 250 and 350 g were used for all experiments (n = 6). Rats were housed in a temperature and humidity-controlled room with 12 h light/dark cycles with food and water available ad libitum. All animals were treated as approved by the University of Michigan Unit for Laboratory Animal Medicine (Protocol: 08516; approval date: 4 April 2011) and in accordance with the National Institute of Health (NIH) Guidelines for the Care and Use of Laboratory Animals. The number of animals used, and their suffering were minimized.
We performed in vivo microdialysis in the rat DLS and applied LC-MS analytical techniques to quantify brain concentrations of the deltorphin analogue BBI-11008, following systemic treatment, and of endogenous leu-enkephalin levels both before and after treatment. These experiments were performed in awake, freely moving rats, implanted with microdialysis probes in the DLS 24 h prior to the experiments. The animals were fully recovered, their wounds healed, and the probes were fixed in place with dental cement. The details of the microdialysis procedure to detect glycopeptides in the rat striatum has been described in detail in [27], with the following minor modifications: the concentric microdialysis probes were slightly larger at 3 mm, and the microdialysis probes were flushed at a lower flow rate of 0.7 µL/min.

[2] = target: T1, human MOR (Homo sapiens, UniProt P35372); test: Opioid receptor binding, inhibition of [3H]DAMGO binding to CHO cell membranes; conditions: for % Inhibition at MOR: 0.25 nM [3H]DAMGO
T1 construct: expressed in transfected cells

[3] = target: T2, human KOR (Homo sapiens, UniProt P41145); test: Opioid receptor binding, [3H]U69593 binding to CHO cell membranes; conditions: 1 nM [3H]U69593; cells print % values
T2 construct: expressed in transfected cells
Protocol: Opioid Receptor Binding: Opioid receptor binding assays were performed as previously described. Membranes from CHO cells stably expressing either the human DOR, MOR, or KOR were used in the binding experiments. […] [^3H]U69593 at a concentration of 1 nM was used to measure binding to the KOR. […] BBI-11008 was chosen for further study.

[4] = target: T3, human DOR (Homo sapiens, UniProt P41143); test: Opioid receptor binding, inhibition of [3H]naltrindole binding to CHO cell membranes; conditions: for % Inhibition at DOR: 0.2 nM [3H]naltrindole
T3 construct: expressed in transfected cells

[5] = tested on: L-DOPA-induced dyskinesia (LID) models; conditions: cited from earlier work
[6] = tested on: L-DOPA-induced abnormal involuntary movements in 6-OHDA-lesioned rats; test: L-DOPA-induced dyskinesia model in unilateral 6-OHDA-lesioned rats, AIMs scoring; type: in vivo, rat; conditions: MK-801 0.3 mg/kg i.p., 25 min prior to L-DOPA
Protocol: Male Sprague-Dawley rats (250 g; Harlan, Indianapolis, IN, USA), were housed in a temperature and humidity-controlled room with 12 h light/dark cycles with food and water available ad libitum. All animals were treated as approved by the Institutional Animal Care and Use Committee at the University of Arizona (Protocol number: 10-204; amendment approval date: 20 August 2012) and in accordance with the NIH Guidelines for the Care and Use of Laboratory Animals. The number of animals used, and their suffering were minimized.
All surgical procedures were performed as published in our prior work unless otherwise stated. […]
Rats showing ipsiversive rotations were selected and treated daily (i.p.) for 3 weeks with a combination of L-DOPA (7 mg/kg) and benserazide (14 mg/kg, MilliporeSigma). […] Baseline L-DOPA-induced LAO and locomotor AIMs (mean ± SEM) were determined over 3 testing sessions, before testing of the compounds was begun. […]
L-DOPA-induced AIMs were scored by an experimentally blinded investigator according to [57]. […] In order to quantify the severity of the AIMs, rats were observed individually in their standard cages every 20th min between 20 and 180 min after an injection of L-DOPA. […]

[7] = tested on: tail-withdrawal assay; conditions: mice, intravenous administration; ref Bilsky and Polt, personal communication; cited from earlier work

T3 sequence (P41143 whole entry): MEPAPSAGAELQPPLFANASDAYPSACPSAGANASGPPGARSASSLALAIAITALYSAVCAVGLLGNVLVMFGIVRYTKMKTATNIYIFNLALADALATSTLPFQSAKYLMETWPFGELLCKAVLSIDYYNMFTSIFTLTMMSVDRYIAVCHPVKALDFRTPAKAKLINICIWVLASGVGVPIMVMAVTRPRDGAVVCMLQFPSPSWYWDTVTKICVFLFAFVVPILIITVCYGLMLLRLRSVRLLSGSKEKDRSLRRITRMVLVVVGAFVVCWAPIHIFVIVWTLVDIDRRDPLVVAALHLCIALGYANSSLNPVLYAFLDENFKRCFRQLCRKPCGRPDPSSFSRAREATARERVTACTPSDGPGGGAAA
T1 sequence (P35372 whole entry): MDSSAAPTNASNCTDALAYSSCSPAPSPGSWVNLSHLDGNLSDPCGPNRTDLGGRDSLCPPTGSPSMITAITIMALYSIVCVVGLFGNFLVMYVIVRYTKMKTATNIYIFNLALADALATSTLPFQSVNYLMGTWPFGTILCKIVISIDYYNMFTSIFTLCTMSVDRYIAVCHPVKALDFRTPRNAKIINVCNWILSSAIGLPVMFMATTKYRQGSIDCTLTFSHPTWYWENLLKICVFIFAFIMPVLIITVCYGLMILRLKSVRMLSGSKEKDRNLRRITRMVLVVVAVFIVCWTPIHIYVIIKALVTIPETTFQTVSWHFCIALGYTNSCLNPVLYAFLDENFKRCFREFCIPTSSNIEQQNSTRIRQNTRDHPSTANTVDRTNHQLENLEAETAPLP
T2 sequence (P41145 whole entry): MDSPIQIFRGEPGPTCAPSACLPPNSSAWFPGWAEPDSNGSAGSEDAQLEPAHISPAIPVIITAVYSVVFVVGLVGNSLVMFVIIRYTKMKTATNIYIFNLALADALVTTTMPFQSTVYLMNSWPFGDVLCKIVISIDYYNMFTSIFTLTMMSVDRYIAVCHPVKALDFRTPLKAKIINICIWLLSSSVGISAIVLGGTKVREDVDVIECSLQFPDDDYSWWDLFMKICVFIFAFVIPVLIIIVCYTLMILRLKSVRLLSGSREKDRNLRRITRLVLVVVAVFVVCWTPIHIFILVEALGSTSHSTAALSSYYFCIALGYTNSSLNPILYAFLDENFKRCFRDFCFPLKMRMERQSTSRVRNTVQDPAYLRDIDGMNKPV

| Compound | % Inhibition at MOR ([2]; peptide 100 nM) [%] | % Inhibition at MOR ([2]; peptide 1 µM) [%] | % Inhibition at DOR ([4]; peptide 100 nM) [%] | % Inhibition at DOR ([4]; peptide 1 µM) [%] | also measured |
| --- | --- | --- | --- | --- | --- |
| CCCC[C@H](NC(=O)[C@H](CCC(=O)O)NC(=O)[C@H](Cc1ccccc1)NC(=O)[C@@H](C)NC(=O)[C@@H](N)Cc1ccc(O)cc1)C(=O)N[C@@H](CCCC)C(=O)N[C@H](C(N)=O)[C@@H](C)O[C@@H]1O[C@H](CO)[C@@H](O)[C@H](O)[C@H]1O [BBI-11008, H2N-YaFE-Nle-Nle-T-(β-D-Glc)] (H-Y[dA]FE[Nle][Nle]T(βGlc)-NH2) | – | – | – | – | peak BBI-11008 level relative to baseline endogenous leu-enkephalin [1]: 10 fold; peak BBI-11008 concentration in dorsolateral striatum dialysate ([1]; 10 min post-injection): 150 pM and > 150 pM; level at time molar at 1 h ([1]; male, Sprague-Dawley, in vivo, ip, 10 mg/kg, 60 min, read-out: striatal BBI-11008 concentration at 60 min post-injection (mean)): ~0.037 nM |
| CCCC[C@H](NC(=O)[C@H](CCC(=O)O)NC(=O)[C@H](Cc1ccccc1)NC(=O)[C@@H](C)NC(=O)[C@@H](N)Cc1ccc(O)cc1)C(=O)N[C@@H](CCCC)C(=O)N[C@H](C(N)=O)[C@@H](C)O [BBI-11009, H2N-YaFE-Nle-Nle-T] (H-Y[dA]FE[Nle][Nle]T-NH2) | – | – | – | – | Ki [2]: 510 nM; % Inhibition at KOR [3]: 3.7%; Ki [4]: 11 nM |
| CCN(CC)C(=O)c1ccc([C@H](c2cccc(O)c2)N2C[C@@H](C)N(Cc3cccc(F)c3)C[C@@H]2C)cc1 [DPI-289] | – | – | – | – | effect on LID ([5]; rodent and non-human primate LID models): anti-dyskinetic |
| C[C@]12N[C@H](Cc3ccccc31)c1ccccc12 [MK-801, Dizocilpine] | – | – | – | – | effect on L-DOPA-induced LAO AIMs [6]: reduced levodopa-induced LAO AIMs; also recorded: does reduce LAO-AIMs; also recorded: efficiently blocked LAO AIMs; ipsiversive pro-Parkinsonian locomotor activity [6]: worsened PD symptoms; also recorded: induces ipsiversive pro-Parkinsonian locomotor activity; also recorded: caused ipsiversive turns |
| CNC1(c2ccccc2Cl)CCCCC1=O (stereo not drawn) [ketamine] | – | – | – | – | effect on LID and Parkinsonism ([5]; sub-anesthetic treatment, rodent models): anti-dyskinetic and anti-Parkinsonian |
| Oc1ccc2c3c1O[C@H]1[C@@H](O)CC[C@@]4(O)[C@@H](C2)N(CC2CCC2)CC[C@]314 [nalbuphine] | – | – | – | – | effect on LID ([5]; dyskinetic non-human LID primates): reduce LID |
| CTAP | – | – | – | – | effect on LID ([5]; highly-selective MOR antagonists): did not reduce LID |
| H2N-YaFHLA-S(β-D-Glc) [BBI-11002] | 82 | 97 | 55 | 77 | – |
| H2N-YaFHLAT-(β-D-Glc) [BBI-11004] | 88 | 98 | 61 | 76 | – |
| H2N-YmFHLM-S(β-D-Glc) [BBI-11001] | 63 | 89 | 72 | 84 | – |
| H2N-YmFHLMT-(β-D-Glc) [BBI-11003] | 57 | 89 | 75 | 83 | – |
| Lactomorphin [MMP-2200] | – | – | – | – | effect on MK-801-induced pro-Parkinsonian activity ([5]; co-administration with MK-801, rodent LID model): attenuated the pro-Parkinsonian activity of MK-801 |
| YaFEVVG-CONH2 [deltorphin] | – | – | – | – | antinociceptive effect in the tail-withdrawal assay [7]: lacks this activity |
